Reference: ChEMBL document CHEMBL1145771 (Bioorg Med Chem Lett, 2003)

Key:
[1] = Selectivity ratio for inhibition of Protein phosphatase 1 and Protein phosphatase 2A
[2] = Inhibition of protein phosphatase 1 (PP1) was determined by standard phosphorylase a inhibition assay; design: species or system Oryctolagus cuniculus

Row | Selectivity ratio [1] | IC50 [2] | SMILES
1 | 1.3 | 80 µM | CO[C@@H]([C@H](O)CC(=O)[C@@H](C)[C@@H](O)CC[C@@H](C)[C@@H]1O[C@]2(CC[C@@H](C)[C@H](CC[C@H](C)C(C)=O)O2)CC[C@@H]1C)[C@H](OC(=O)C[C@@](C)(O)C(=O)O)C(C)C
2 | 1.9 | 2.1 µM | CO[C@@H]([C@H](O)CC(=O)[C@@H](C)[C@@H](O)CC[C@@H](C)[C@@H]1O[C@]2(CC[C@@H](C)[C@H](CC[C@H](C)C(C)=O)O2)CC[C@@H]1C)[C@H](OC(=O)C[C@@H](O)/C=C(\C)C(=O)O)C(C)C
3 | 2 | 150 µM | CO[C@@H]([C@H](O)CC(=O)[C@@H](C)[C@@H](O)CC[C@@H](C)[C@@H]1O[C@]2(CC[C@@H](C)[C@H](CC[C@H](C)C(C)=O)O2)CC[C@@H]1C)[C@H](OC(=O)CCCP(=O)(O)O)C(C)C
4 | 1.5 | 19 µM | CO[C@@H]([C@H](O)CC(=O)[C@@H](C)[C@@H](O)CC[C@@H](C)[C@@H]1O[C@]2(CC[C@@H](C)[C@H](CC[C@H](C)C(C)=O)O2)CC[C@@H]1C)[C@H](OC(=O)C[C@](C)(O)C(=O)O)C(C)C

The next lines start with the compound.

Row | SMILES | Selectivity ratio [1] | IC50 [2]
5 | CO[C@H]([C@H](O)CC(=O)[C@@H](C)[C@@H](O)CC[C@@H](C)[C@@H]1O[C@]2(CC[C@@H](C)[C@H](CC[C@H](C)C(C)=O)O2)CC[C@@H]1C)[C@H](OC(=O)C[C@@H](O)C1=C(C)C(=O)OC1=O)C(C)C [TAUTOMYCIN] | – | 1.9 µM
6 | CO[C@@H]([C@H](O)CC(=O)[C@@H](C)[C@@H](O)CC[C@@H](C)[C@@H]1O[C@]2(CC[C@@H](C)[C@H](CC[C@H](C)C(C)=O)O2)CC[C@@H]1C)[C@H](OC(=O)C[C@H](O)C1=C(C)C(=O)OC1=O)C(C)C | – | 0.13 µM
